Experimental data: patent publication US20240083896A1, “Nitrogen Containing 2,3-Dihydroquinazolinone Compounds as Nav1.8 Inhibitors” (GlaxoSmithKline Intellectual Property Development Limited, priority 2020, published 2024)

biological target: human Nav1.8 (Homo sapiens (Human), UniProt Q9Y5Y9); experiment: QPatch 48 HTX electrophysiology assay, half inactivation state voltage protocol (V1/2), HEK293-Nav1.8 cells; format: cell-based; conditions: HEK293 cells expressing human Nav1.8, human Navβ1 and human TREK1; V1/2 protocol, P2 current; IC50 in molar; average where more than one run
Experimental: Human embryonic kidney 293 cells (HEK293) expressing human Nav1.8, human Navβ1 and human TREK1 (HEK293-Nav1.8) were grown at 37° C., 5% CO2 in 150 cm^2 flasks. HEK293-Nav1.8 were passaged every 2-3 days into T175 cell culture flasks when confluency reached 80-90%.
Pharmacological assessment of the compounds of the invention was performed using HEK293-Nav1.8 in combination with an assay developed on the QPatch 48 HTX electrophysiological system. HEK293-Nav1.8 were prepared on the day of use by removing culture media, washing in DPBS, adding Accutase (2 ml to cover the surface, aspirate 1 ml then 1.5 min at 37° C.) followed by addition of CHO-SFM II to stop the enzyme digestion and in order to obtain a suspension of 3×10^6 cell/mL.
Compound was prepared in an extracellular solution of the following composition: NaCl (145 mM), KCl (4 mM), CaCl2 (2 mM), MgCl2 (2 mM), HEPES (1 mM), Glucose (10 mM), pH 7.4 with NaOH Osmolality 300 mOsM/L. The intracellular solution was used of the following composition: CsF (115 mM), CsCl (20 mM), NaCl (5 mM), EGTA (10 mM), HEPES (10 mM), Sucrose (20 mM), pH 7.2 with CsOH Osmolality 310 mOsm/L.
Utilizing the voltage-clamp mode in the QPatch 48 HTX system a half inactivation state voltage protocol (V1/2) was used to determine pharmacological activity of compounds of the invention at Nav1.8 ion channels. A V1/2 protocol was utilized with the following voltage steps: a holding voltage of −100 mV was established followed by a 20 ms voltage step to 0 mV (P1), followed by an inactivating voltage step at −46 mV for 8 seconds, followed by a step to −100 mV for 20 ms, before a 20 ms step to 0 mV (P2) before returning to the holding voltage of −100 mV. This voltage protocol was repeated at a frequency of 0.07 Hz., current magnitude was quantified at the P2 step throughout the recording. Inhibition of the measured current amplitude with the compounds of the invention was analyzed by fitting a 4-8 point dose-response curve allowing determination of the fifty percent inhibition concentration (IC50). Within the QPatch HTX software, P2 current was normalized according to measurements made at baseline after compound and after positive reference compound and fit to the following equation: […]
To assess current run-down over the course of the experiment vehicle-only wells were utilized and the normalized current with vehicle-only (n.IVEH) was determined. To correct the compound response for run-down, the currents were corrected according the following formula: […]
Compounds of the invention were tested for activity against […]. Potency of the compounds of the invention is reported as a pIC50 value. The pIC50 value is the negative log of the IC50 value, wherein the IC50 value is the half maximal inhibitory concentration measured in molar (M). For compounds tested in more than one experimental run, the pIC50 value is reported as an average.

Sequence of human Nav1.8 (Q9Y5Y9 whole entry): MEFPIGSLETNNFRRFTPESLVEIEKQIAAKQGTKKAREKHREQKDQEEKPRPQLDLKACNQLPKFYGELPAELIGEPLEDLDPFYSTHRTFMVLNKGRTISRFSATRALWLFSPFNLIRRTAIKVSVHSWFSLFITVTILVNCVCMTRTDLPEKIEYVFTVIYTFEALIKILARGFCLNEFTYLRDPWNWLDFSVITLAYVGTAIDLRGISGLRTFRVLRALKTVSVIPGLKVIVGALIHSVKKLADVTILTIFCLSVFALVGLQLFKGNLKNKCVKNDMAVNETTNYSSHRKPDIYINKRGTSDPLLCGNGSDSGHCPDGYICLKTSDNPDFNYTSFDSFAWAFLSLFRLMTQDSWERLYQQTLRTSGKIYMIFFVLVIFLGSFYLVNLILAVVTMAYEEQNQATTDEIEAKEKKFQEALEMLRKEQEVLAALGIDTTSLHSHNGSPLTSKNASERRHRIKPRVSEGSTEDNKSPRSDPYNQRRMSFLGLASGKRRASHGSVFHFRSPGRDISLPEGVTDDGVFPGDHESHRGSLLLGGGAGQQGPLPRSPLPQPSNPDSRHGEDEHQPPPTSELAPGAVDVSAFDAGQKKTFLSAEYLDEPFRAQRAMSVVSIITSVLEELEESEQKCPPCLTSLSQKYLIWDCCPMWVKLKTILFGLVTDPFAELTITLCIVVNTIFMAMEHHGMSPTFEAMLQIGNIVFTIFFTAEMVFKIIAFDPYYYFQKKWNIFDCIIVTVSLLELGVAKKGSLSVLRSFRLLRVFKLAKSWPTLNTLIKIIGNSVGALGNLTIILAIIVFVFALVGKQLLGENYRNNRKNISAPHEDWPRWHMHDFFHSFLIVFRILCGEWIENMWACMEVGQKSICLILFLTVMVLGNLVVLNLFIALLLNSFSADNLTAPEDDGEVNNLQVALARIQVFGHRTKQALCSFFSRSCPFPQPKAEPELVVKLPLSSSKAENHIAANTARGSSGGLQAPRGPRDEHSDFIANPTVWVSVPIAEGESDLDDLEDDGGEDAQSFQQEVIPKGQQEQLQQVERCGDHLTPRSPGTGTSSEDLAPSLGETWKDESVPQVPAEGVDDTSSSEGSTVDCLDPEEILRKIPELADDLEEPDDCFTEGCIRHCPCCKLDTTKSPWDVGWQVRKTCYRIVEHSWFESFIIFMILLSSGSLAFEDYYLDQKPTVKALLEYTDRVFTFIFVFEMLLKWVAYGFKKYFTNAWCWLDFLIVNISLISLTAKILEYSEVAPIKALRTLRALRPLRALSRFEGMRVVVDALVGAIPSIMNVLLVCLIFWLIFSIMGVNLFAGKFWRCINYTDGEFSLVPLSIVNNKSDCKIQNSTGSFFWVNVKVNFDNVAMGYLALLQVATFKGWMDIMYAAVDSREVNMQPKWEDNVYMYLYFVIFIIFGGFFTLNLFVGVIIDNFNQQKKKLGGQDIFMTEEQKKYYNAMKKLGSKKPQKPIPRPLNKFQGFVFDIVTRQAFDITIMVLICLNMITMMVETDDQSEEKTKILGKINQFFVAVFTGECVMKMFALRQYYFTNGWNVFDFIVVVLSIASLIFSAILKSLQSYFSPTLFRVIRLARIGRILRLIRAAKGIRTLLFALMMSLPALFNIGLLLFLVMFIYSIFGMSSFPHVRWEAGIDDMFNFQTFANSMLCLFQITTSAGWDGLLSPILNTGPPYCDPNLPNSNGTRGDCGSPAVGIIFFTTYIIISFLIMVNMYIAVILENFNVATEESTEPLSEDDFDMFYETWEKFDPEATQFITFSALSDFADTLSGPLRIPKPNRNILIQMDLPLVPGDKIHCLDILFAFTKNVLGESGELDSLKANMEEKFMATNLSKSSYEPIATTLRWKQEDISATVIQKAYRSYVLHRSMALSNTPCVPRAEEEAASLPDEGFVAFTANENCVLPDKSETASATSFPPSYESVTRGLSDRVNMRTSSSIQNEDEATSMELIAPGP
Sequence of human Nav1.8 (Q07699 19-218 partner): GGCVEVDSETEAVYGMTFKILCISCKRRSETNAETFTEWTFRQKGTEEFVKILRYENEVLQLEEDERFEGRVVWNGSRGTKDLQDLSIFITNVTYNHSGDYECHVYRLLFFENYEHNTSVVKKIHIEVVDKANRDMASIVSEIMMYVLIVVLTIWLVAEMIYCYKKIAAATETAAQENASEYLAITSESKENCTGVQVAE

Row | Compound | [Nav1.8] pIC50
1 | Cc1cc(F)ccc1N1CN(c2ccc(=O)[nH]c2C)C(=O)c2nc(C(F)(F)F)cnc21 [Example 8, 1-(4-Fluoro-2-methylphenyl)-3-(2-methyl-6-oxo-1,6-dihydropyridin-3-yl)-6-(trifluoromethyl)-2,3-dihydropteridin-4(1H)-one] | 5.1
2 | CCc1c(N2CN(c3ccc(=O)[nH]c3C)C(=O)c3cc(C(F)(F)F)ncc32)ccc(F)c1F [Example 10, 1-(2-Ethyl-3,4-difluorophenyl)-3-(2-methyl-6-oxo-1,6-dihydropyridin-3-yl)-6-(trifluoromethyl)-2,3-dihydropyrido[3,4-d]pyrimidin-4(1H)-one] | 7.5
3 | Cc1cc(F)ccc1N1CN(c2ccc(=O)[nH]c2C)C(=O)c2ccncc21 [Example 12, 1-(4-Fluoro-2-methylphenyl)-3-(2-methyl-6-oxo-1,6-dihydropyridin-3-yl)-2,3-dihydropyrido[3,4-d]pyrimidin-4(1H)-one] | 5.3
4 | Cc1cc(F)ccc1N1CN(c2ccc(=O)[nH]c2C)C(=O)c2cnc(C(F)(F)F)cc21 [Example 4, 1-(4-Fluoro-2-methylphenyl)-3-(2-methyl-6-oxo-1,6-dihydropyridin-3-yl)-7-(trifluoromethyl)-2,3-dihydropyrido[4,3-d]pyrimidin-4(1H)-one] | 6.8
5 | Cc1cc(F)ccc1N1CN(c2ccc(=O)[nH]c2C)C(=O)c2ncc(C(F)(F)F)nc21 [Example 7, 1-(4-Fluoro-2-methylphenyl)-3-(2-methyl-6-oxo-1,6-dihydropyridin-3-yl)-7-(trifluoromethyl)-2,3-dihydropteridin-4(1H)-one] | 5.4
6 | Cc1cc(F)ccc1N1CN(c2ccc(=O)[nH]c2C)C(=O)c2cnc(C(F)(F)F)nc21 [Example 2, 1-(4-Fluoro-2-methylphenyl)-3-(2-methyl-6-oxo-1,6-dihydropyridin-3-yl)-7-(trifluoromethyl)-2,3-dihydropyrimido[4,5-d]pyrimidin-4(1H)-one] | 6
7 | Cc1cc(F)ccc1N1CN(c2ccc(=O)[nH]c2C)C(=O)c2cc(Cl)ncc21 [Example 15, 6-Chloro-1-(4-fluoro-2-methylphenyl)-3-(2-methyl-6-oxo-1,6-dihydropyridin-3-yl)-2,3-dihydropyrido[3,4-d]pyrimidin-4(1H)-one] | 6.6
8 | Cc1cc(F)ccc1N1CN(c2ccc(=O)[nH]c2C)C(=O)c2cc(C(F)(F)F)ncc21 [Example 6, 1-(4-Fluoro-2-methylphenyl)-3-(2-methyl-6-oxo-1,6-dihydropyridin-3-yl)-6-(trifluoromethyl)-2,3-dihydropyrido[3,4-d]pyrimidin-4(1H)-one] | 7
9 | Cc1[nH]c(=O)ccc1N1CN(c2ccc(F)cc2C(C)C)c2cnc(C(F)(F)F)cc2C1=O [Example 5, 1-(4-Fluoro-2-isopropylphenyl)-3-(2-methyl-6-oxo-1,6-dihydropyridin-3-yl)-6-(trifluoromethyl)-2,3-dihydropyrido[3,4-d]pyrimidin-4(1H)-one] | 7.2
10 | Cc1cc(OC(F)(F)F)ccc1N1CN(c2cc(F)c(=O)[nH]c2C)C(=O)c2cc(C(F)(F)F)ncc21 [Example 21, 3-(5-Fluoro-2-methyl-6-oxo-1,6-dihydropyridin-3-yl)-1-(2-methyl-4-(trifluoromethoxy)phenyl)-6-(trifluoromethyl)-2,3-dihydropyrido[3,4-d]pyrimidin-4(1H)-one] | 7.4
11 | Cc1cc(F)ccc1N1CN(c2ccc(=O)[nH]c2C)C(=O)c2cnc(C#N)cc21 [Example 19, 1-(4-Fluoro-2-methylphenyl)-3-(2-methyl-6-oxo-1,6-dihydropyridin-3-yl)-4-oxo-1,2,3,4-tetrahydropyrido[4,3-d]pyrimidine-7-carbonitrile] | 5.4
12 | Cc1cc(OC(F)(F)F)ccc1N1CN(c2ccc(=O)[nH]c2C)C(=O)c2cc(C(F)(F)F)ncc21 [Example 16, 1-(2-Methyl-4-(trifluoromethoxy)phenyl)-3-(2-methyl-6-oxo-1,6-dihydropyridin-3-yl)-6-(trifluoromethyl)-2,3-dihydropyrido[3,4-d]pyrimidin-4(1H)-one] | 7.9
13 | Cc1cc(F)ccc1N1CN(c2ccc(=O)[nH]c2C)C(=O)c2ncc(C(F)(F)F)cc21 [Example 1, 1-(4-Fluoro-2-methylphenyl)-3-(2-methyl-6-oxo-1,6-dihydropyridin-3-yl)-7-(trifluoromethyl)-2,3-dihydropyrido[3,2-d]pyrimidin-4(1H)-one] | 5.9
14 | Cc1[nH]c(=O)ccc1N1CN(c2ccc(F)cc2C(C)C)c2cnc(Cl)cc2C1=O [Example 3, 6-Chloro-1-(4-fluoro-2-isopropylphenyl)-3-(2-methyl-6-oxo-1,6-dihydropyridin-3-yl)-2,3-dihydropyrido[3,4-d]pyrimidin-4(1H)-one] | 7
15 | Cc1[nH]c(=O)ccc1N1CN(c2ccc(F)c(F)c2C)c2cnc(C(F)(F)F)cc2C1=O [Example 17, 1-(3,4-Difluoro-2-methylphenyl)-3-(2-methyl-6-oxo-1,6-dihydropyridin-3-yl)-6-(trifluoromethyl)-2,3-dihydropyrido[3,4-d]pyrimidin-4(1H)-one] | 7.2
16 | Cc1[nH]c(=O)ccc1N1CN(c2ccc(F)cc2C(C)C)c2ccc(Cl)nc2C1=O [Example 9, 6-Chloro-1-(4-fluoro-2-isopropylphenyl)-3-(2-methyl-6-oxo-1,6-dihydropyridin-3-yl)-2,3-dihydropyrido[3,2-d]pyrimidin-4(1H)-one] | 5.8
17 | Cc1cc(F)ccc1N1CN(c2ccc(=O)[nH]c2C)C(=O)c2cc(C#N)ncc21 [Example 22, 1-(4-Fluoro-2-methylphenyl)-3-(2-methyl-6-oxo-1,6-dihydropyridin-3-yl)-4-oxo-1,2,3,4-tetrahydropyrido[3,4-d]pyrimidine-6-carbonitrile] | 5.4
18 | Cc1cc(F)ccc1N1CN(c2ccc(=O)[nH]c2C)C(=O)c2cnc(Cl)cc21 [Example 18, 7-Chloro-1-(4-fluoro-2-methylphenyl)-3-(2-methyl-6-oxo-1,6-dihydropyridin-3-yl)-2,3-dihydropyrido[4,3-d]pyrimidin-4(1H)-one] | 6.6
19 | Cc1cc(F)ccc1N1CN(c2cc(F)c(=O)[nH]c2C)C(=O)c2cc(C(F)(F)F)ncc21 [Example 11, 3-(5-Fluoro-2-methyl-6-oxo-1,6-dihydropyridin-3-yl)-1-(4-fluoro-2-methylphenyl)-6-(trifluoromethyl)-2,3-dihydropyrido[3,4-d]pyrimidin-4(1H)-one] | 6.5
20 | Cc1c[n+]([O-])ccc1N1CN(c2ccc(OC(F)(F)F)cc2C)c2cnc(C(F)(F)F)cc2C1=O [Example 23, 3-Methyl-4-(1-(2-methyl-4-(trifluoromethoxy)phenyl)-4-oxo-6-(trifluoromethyl)-1,4-dihydropyrido[3,4-d]pyrimidin-3(2H)-yl)pyridine 1-oxide] | 6.7
21 | CCc1cc(F)ccc1N1CN(c2ccc(=O)[nH]c2C)C(=O)c2cc(C(F)(F)F)ncc21 [Example 14, 1-(2-Ethyl-4-fluorophenyl)-3-(2-methyl-6-oxo-1,6-dihydropyridin-3-yl)-6-(trifluoromethyl)-2,3-dihydropyrido[3,4-d]pyrimidin-4(1H)-one] | 7.1
22 | CCc1cc(F)ccc1N1CN(c2ccc(=O)[nH]c2C)C(=O)c2cnc(C(F)(F)F)cc21 [Example 20, 1-(2-Ethyl-4-fluorophenyl)-3-(2-methyl-6-oxo-1,6-dihydropyridin-3-yl)-7-(trifluoromethyl)-2,3-dihydropyrido[4,3-d]pyrimidin-4(1H)-one] | 7.1
